Results as given in paper PMC4503722, “Novel Phenotypic Outcomes Identified for a Public Collection of Approved Drugs from a Publicly Accessible Panel of Assays” (PLoS ONE, 2015).

How the values were obtained:
HeLa cells = test: cells; format: cell-based; settings: for Hela CellCycMod PI 2N IC50/EC50: assay number 14; for Hela CellCycMod PI S Phase IC50/EC50: assay number 15; for Hela CellCycMod PI 4N IC50/EC50: assay number 16; for Hela CellCycMod PI MI IC50/EC50: assay number 17; for Hela CellCycMod PI Cell Number IC50/EC50: assay number 18
SNU-C1 = test: cells; format: cell-based; settings: assay number 30
RKO = test: cells; format: cell-based; settings: assay number 29
hJAK2 = target: T1, hJAK2 (Homo sapiens, UniProt O60674); test: Cerep LANCE kinase assay hJAK2 (S1 assay 33); format: biochemical; settings: assay number 33
T1 construct: purchased Cerep (LANCE kinase assay platform, contract assay)
T1 sequence (O60674 whole entry): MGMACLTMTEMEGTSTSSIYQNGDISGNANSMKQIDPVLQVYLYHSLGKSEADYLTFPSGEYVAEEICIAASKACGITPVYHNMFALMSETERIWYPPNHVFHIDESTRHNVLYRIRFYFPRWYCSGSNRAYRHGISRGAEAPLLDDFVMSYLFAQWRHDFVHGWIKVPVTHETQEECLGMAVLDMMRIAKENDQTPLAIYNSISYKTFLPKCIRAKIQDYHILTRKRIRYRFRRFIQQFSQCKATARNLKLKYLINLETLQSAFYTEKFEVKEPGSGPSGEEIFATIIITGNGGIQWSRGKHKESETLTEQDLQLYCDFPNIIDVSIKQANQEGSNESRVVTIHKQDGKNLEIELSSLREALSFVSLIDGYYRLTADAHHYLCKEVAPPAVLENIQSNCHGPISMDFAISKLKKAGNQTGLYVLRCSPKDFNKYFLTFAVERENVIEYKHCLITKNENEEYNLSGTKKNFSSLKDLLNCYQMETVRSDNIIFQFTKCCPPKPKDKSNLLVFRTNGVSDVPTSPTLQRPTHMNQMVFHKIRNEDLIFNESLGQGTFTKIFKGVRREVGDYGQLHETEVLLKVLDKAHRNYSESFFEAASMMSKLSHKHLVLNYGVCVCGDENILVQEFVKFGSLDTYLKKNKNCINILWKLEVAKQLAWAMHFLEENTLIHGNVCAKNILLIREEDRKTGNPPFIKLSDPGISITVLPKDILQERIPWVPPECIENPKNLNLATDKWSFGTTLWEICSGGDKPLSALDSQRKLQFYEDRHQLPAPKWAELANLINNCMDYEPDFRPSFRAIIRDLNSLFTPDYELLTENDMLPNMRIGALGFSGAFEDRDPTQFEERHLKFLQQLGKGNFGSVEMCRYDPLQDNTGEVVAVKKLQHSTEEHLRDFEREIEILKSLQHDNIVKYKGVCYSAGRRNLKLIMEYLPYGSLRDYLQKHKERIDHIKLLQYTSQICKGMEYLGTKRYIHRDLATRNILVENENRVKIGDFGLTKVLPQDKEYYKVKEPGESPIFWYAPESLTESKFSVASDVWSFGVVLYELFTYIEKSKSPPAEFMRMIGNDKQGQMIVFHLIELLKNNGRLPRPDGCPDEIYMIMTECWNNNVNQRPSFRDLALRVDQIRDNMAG

[1] = tested on: nuclear β-catenin in C2C12 cells; test: cells; format: cell-based; settings: assay number 5; concentration response
SW480 = test: cells; format: cell-based; settings: assay number 24
hGSK3b = target: T2, hGSK3b (Homo sapiens, UniProt P49841); test: Cerep LANCE kinase assay hGSK3b (S1 assay 34); format: biochemical; settings: assay number 34
T2 construct: purchased Cerep (LANCE kinase assay platform, contract assay)
T2 sequence (P49841 whole entry): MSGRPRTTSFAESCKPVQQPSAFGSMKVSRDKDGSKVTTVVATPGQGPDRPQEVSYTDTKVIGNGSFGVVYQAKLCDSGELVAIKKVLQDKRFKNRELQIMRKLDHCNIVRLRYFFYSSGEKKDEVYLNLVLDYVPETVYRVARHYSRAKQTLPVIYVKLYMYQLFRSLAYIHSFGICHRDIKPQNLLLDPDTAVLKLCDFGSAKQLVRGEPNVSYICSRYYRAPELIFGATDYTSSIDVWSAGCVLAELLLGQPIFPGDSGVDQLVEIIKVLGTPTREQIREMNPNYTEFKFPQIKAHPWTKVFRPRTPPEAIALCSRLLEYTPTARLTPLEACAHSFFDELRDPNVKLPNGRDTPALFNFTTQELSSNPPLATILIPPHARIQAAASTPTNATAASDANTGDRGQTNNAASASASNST

hp70S6K1 (RPS6KB1) = target: T3, hp70S6K1 (RPS6KB1) (Homo sapiens, UniProt P23443); test: Cerep LANCE kinase assay hp70S6K1 (S1 assay 31); format: biochemical; settings: assay number 31
T3 construct: purchased Cerep (LANCE kinase assay platform, contract assay)
T3 sequence (P23443 whole entry): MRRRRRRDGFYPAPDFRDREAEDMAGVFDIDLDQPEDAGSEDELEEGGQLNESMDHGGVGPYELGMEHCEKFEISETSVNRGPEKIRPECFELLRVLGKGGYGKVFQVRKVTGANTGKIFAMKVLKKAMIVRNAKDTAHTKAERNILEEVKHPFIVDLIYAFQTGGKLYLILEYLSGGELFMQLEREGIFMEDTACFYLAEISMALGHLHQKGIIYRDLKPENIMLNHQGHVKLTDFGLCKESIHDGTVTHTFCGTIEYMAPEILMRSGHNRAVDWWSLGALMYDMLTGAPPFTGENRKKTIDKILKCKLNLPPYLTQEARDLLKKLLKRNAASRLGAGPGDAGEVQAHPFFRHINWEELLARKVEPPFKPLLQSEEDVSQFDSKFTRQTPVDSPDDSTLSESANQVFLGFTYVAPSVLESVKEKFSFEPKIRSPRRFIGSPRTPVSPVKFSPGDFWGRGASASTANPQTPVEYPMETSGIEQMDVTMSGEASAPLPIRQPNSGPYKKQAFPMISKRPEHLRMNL

[2] = tested on: HCT116 cells treated with a GSK3β inhibitor; test: cells; format: cell-based; settings: assay number 26; GSK3b inhibitor pretreated
DLD-1 = test: cells; format: cell-based; settings: assay number 23
hKDR = target: T4, hKDR (Homo sapiens, UniProt P35968); test: Cerep LANCE kinase assay hKDR (S1 assay 32); format: biochemical; settings: assay number 32
T4 construct: purchased Cerep (LANCE kinase assay platform, contract assay)
T4 sequence (P35968 20-1356): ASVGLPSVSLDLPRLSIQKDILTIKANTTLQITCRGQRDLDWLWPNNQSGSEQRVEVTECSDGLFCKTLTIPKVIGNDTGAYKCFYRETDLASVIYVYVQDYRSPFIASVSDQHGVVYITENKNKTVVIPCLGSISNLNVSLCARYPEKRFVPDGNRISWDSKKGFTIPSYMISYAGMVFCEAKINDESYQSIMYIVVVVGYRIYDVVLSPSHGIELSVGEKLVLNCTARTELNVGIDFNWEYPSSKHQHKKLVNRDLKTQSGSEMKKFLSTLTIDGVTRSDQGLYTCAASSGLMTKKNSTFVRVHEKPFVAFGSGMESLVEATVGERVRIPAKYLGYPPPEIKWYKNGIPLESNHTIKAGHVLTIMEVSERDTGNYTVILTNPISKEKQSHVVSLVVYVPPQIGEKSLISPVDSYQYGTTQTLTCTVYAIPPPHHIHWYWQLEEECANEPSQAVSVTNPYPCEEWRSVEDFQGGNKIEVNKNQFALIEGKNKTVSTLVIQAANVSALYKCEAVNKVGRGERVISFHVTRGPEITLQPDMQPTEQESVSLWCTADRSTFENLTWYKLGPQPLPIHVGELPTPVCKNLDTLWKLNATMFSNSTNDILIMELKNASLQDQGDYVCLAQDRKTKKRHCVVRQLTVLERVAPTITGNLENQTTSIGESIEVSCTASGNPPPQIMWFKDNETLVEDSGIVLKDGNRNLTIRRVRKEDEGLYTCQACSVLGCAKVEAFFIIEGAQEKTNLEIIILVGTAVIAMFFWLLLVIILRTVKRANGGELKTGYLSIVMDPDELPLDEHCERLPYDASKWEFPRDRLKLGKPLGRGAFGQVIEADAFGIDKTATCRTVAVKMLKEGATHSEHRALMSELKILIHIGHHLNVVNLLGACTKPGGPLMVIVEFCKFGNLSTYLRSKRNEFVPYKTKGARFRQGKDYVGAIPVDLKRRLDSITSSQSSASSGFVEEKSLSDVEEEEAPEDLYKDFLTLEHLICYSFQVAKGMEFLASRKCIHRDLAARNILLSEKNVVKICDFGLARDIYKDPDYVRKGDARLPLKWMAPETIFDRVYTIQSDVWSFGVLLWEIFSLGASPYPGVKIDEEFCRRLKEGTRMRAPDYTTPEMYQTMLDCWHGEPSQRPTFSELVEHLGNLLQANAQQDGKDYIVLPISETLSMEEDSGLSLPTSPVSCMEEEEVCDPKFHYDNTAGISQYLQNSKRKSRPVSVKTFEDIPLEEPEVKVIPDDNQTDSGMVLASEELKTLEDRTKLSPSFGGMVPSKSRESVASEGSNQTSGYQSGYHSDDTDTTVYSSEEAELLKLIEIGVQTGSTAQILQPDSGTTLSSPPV

[3] = tested on: alkaline phosphatase (ALP) activity in C2C12 cells; format: cell-based; settings: assay number 6; concentration response
[4] = tested on: endothelial tube formation in co-cultures of ECFCs and ADSCs treated with VEGF; test: cells; format: cell-based, human
Colo320 = test: cells; format: cell-based; settings: assay number 27
HT-29 = test: cells; format: cell-based; settings: assay number 28
hFLT3 = target: T5, hFLT3 (Homo sapiens, UniProt P36888); test: Cerep LANCE kinase assay hFLT3 (S1 assay 35); format: biochemical; settings: assay number 35
T5 construct: purchased Cerep (LANCE kinase assay platform, contract assay)
T5 sequence (P36888 27-993): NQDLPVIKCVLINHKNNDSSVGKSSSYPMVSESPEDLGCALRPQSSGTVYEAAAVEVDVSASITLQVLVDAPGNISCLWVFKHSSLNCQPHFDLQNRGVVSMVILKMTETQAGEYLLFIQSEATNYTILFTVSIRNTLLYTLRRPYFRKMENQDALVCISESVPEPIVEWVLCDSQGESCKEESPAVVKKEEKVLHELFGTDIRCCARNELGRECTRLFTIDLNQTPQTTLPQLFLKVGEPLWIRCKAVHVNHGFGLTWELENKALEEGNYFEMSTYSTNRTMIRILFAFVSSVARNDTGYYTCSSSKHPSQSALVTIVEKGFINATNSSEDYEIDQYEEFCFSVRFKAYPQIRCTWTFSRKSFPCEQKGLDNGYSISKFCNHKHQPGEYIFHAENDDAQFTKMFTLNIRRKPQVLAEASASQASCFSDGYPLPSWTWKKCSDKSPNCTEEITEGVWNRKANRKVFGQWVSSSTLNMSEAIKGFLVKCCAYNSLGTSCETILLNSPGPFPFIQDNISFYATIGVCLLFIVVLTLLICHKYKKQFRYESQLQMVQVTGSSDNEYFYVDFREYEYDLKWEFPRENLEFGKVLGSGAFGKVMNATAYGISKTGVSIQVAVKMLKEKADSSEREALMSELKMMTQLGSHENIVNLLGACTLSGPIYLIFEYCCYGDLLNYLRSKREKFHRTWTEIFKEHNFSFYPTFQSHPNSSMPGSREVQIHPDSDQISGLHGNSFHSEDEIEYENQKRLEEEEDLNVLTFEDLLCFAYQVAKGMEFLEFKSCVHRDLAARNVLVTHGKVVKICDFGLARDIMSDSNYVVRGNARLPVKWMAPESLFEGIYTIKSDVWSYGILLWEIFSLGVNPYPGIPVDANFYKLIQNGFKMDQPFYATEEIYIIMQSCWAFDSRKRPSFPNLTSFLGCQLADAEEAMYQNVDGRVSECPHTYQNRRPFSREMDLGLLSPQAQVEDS

HCT116 = test: cells; format: cell-based; settings: assay number 25; basal
[5] = tested on: ECFC/ADSC co-culture cell nuclei number

Cc1cc(=O)c2c(O)c3c(O)cc(=O)c4c3c3c(cc(O)c1c23)C(C)(C)C=4O [NCGC00160275-03]
Hela CellCycMod PI 2N IC50/EC50 (HeLa cells): > 10 µM | Hela CellCycMod PI S Phase IC50/EC50 (HeLa cells): > 10 µM | Hela CellCycMod PI 4N IC50/EC50 (HeLa cells): > 10 µM | Hela CellCycMod PI MI IC50/EC50 (HeLa cells): > 10 µM | Hela CellCycMod PI Cell Number IC50/EC50 (HeLa cells): 1.0003 µM | Basal_Viability ATP SNU-C1 IC50/EC50 (SNU-C1; basal): 0.3321 µM | Basal_Viability ATP RKO IC50/EC50 (RKO; basal): 0.0754 µM | hJAK2 LANCE IC50/EC50 (hJAK2): > 20 µM | WntCondMedia_bCatenin C2C12 IC50/EC50 [1]: 1.0715 µM | Basal_Viability ATP SW480 IC50/EC50 (SW480; basal): 0.05797 µM | hGSK3b LANCE IC50/EC50 (hGSK3b): 6.9 µM | hp70S6K1 LANCE IC50/EC50 (hp70S6K1 (RPS6KB1)): > 20 µM | GSK3b inh pretreated_Viability ATP HCT116 IC50/EC50 [2]: 0.05735 µM | Basal_Viability ATP DLD-1 IC50/EC50 (DLD-1; basal): 0.07089 µM | hKDR LANCE IC50/EC50 (hKDR): > 20 µM | WntCondMedia_Alk Phos C2C12 IC50/EC50 [3]: 2.9111 µM | VEGF_ADSC\ECFC Angio CD31 TubeArea IC50/EC50 [4]: 0.1005 µM | Basal_Viability ATP Colo 320 IC50/EC50 (Colo320; basal): 0.08199 µM | Basal_Viability ATP HT-29 IC50/EC50 (HT-29; basal): 3.006 µM | hFLT3 LANCE IC50/EC50 (hFLT3): 1.97 µM | Basal_Viability ATP HCT116 IC50/EC50 (HCT116): 0.07747 µM | VEGF_ADSC\ECFC Angio Hoechst NucArea IC50/EC50 [5]: 2.074 µM

COc1cc(NCc2ccc3nc(N)nc(N)c3c2C)cc(OC)c1OC [NCGC00161419-05]
Hela CellCycMod PI 2N IC50/EC50 (HeLa cells): > 10 µM | Hela CellCycMod PI S Phase IC50/EC50 (HeLa cells): > 10 µM | Hela CellCycMod PI 4N IC50/EC50 (HeLa cells): > 10 µM | Hela CellCycMod PI MI IC50/EC50 (HeLa cells): > 10 µM | Hela CellCycMod PI Cell Number IC50/EC50 (HeLa cells): 3.8068 µM | Basal_Viability ATP SNU-C1 IC50/EC50 (SNU-C1): 5.1323 µM | Basal_Viability ATP RKO IC50/EC50 (RKO): 0.00272 µM | hJAK2 LANCE IC50/EC50 (hJAK2): > 20 µM | WntCondMedia_bCatenin C2C12 IC50/EC50 [1]: 0.0033 µM | Basal_Viability ATP SW480 IC50/EC50 (SW480): 0.0591 µM | hGSK3b LANCE IC50/EC50 (hGSK3b): > 20 µM | hp70S6K1 LANCE IC50/EC50 (hp70S6K1 (RPS6KB1)): > 20 µM | GSK3b inh pretreated_Viability ATP HCT116 IC50/EC50 [2]: 0.00392 µM | Basal_Viability ATP DLD-1 IC50/EC50 (DLD-1): 0.1951 µM | hKDR LANCE IC50/EC50 (hKDR): > 20 µM | WntCondMedia_Alk Phos C2C12 IC50/EC50 [3]: > 20 µM | VEGF_ADSC\ECFC Angio CD31 TubeArea IC50/EC50 [4]: 4.418 µM | Basal_Viability ATP Colo 320 IC50/EC50 (Colo320): 0.3859 µM | Basal_Viability ATP HT-29 IC50/EC50 (HT-29): 0.02122 µM | hFLT3 LANCE IC50/EC50 (hFLT3): > 20 µM | Basal_Viability ATP HCT116 IC50/EC50 (HCT116): 0.02309 µM | VEGF_ADSC\ECFC Angio Hoechst NucArea IC50/EC50 [5]: > 10 µM

COc1ccc2cc1Oc1ccc(cc1)C[C@H]1c3c(cc4c(c3Oc3cc5c(cc3OC)CCN(C)[C@@H]5C2)OCO4)CCN1C [NCGC00161621-03]
Hela CellCycMod PI 2N IC50/EC50 (HeLa cells): > 10 µM | Hela CellCycMod PI S Phase IC50/EC50 (HeLa cells): > 10 µM | Hela CellCycMod PI 4N IC50/EC50 (HeLa cells): > 10 µM | Hela CellCycMod PI MI IC50/EC50 (HeLa cells): > 10 µM | Hela CellCycMod PI Cell Number IC50/EC50 (HeLa cells): 5.5384 µM | Basal_Viability ATP SNU-C1 IC50/EC50 (SNU-C1): 7.483 µM | Basal_Viability ATP RKO IC50/EC50 (RKO): 3.787 µM | hJAK2 LANCE IC50/EC50 (hJAK2): > 20 µM | WntCondMedia_bCatenin C2C12 IC50/EC50 [1]: 5.6301 µM | Basal_Viability ATP SW480 IC50/EC50 (SW480): 0.308 µM | hGSK3b LANCE IC50/EC50 (hGSK3b): > 20 µM | hp70S6K1 LANCE IC50/EC50 (hp70S6K1 (RPS6KB1)): > 20 µM | GSK3b inh pretreated_Viability ATP HCT116 IC50/EC50 [2]: 3.567 µM | Basal_Viability ATP DLD-1 IC50/EC50 (DLD-1): 12.3697 µM | hKDR LANCE IC50/EC50 (hKDR): > 20 µM | WntCondMedia_Alk Phos C2C12 IC50/EC50 [3]: 2.0494 µM | VEGF_ADSC\ECFC Angio CD31 TubeArea IC50/EC50 [4]: 3.0213 µM | Basal_Viability ATP Colo 320 IC50/EC50 (Colo320): 1.426 µM | Basal_Viability ATP HT-29 IC50/EC50 (HT-29): 1.365 µM | hFLT3 LANCE IC50/EC50 (hFLT3): > 20 µM | Basal_Viability ATP HCT116 IC50/EC50 (HCT116): 9.5422 µM | VEGF_ADSC\ECFC Angio Hoechst NucArea IC50/EC50 [5]: > 10 µM
